System: blood pool
Experiment: Mouse CEST MR imaging at 4.7T
Assay type: in vivo
Conditions: mouse sacrificed 1 minute after injection, ~0.6 mmol Eu(II)/kg, saturation at -52 ppm vs +52 ppm
Description: Data was recorded at 4.7T on Bruker MR imager in a mouse sacrificed 1 minute after injection of Eu-polyLysine CEST (Example 4a) compound in water at a ˜0.6 mmol Eu(II)/kg dose (saturation pulse with a power of ˜25 μT for 2.0 s using 1000 Gauss pulses of 2 ms each).
Reference tubes contain from left to right: water, compound at 10 mM Eu(III) concentration, compound at 50 mM Eu(III) concentration and, Magnevist at a concentration such that T1˜1s.

polylysine conjugate with the europium complex of 1,4,7,10-tetra-[N-(carboxymethyl)-carbamoyl-methyl]1,4,7,10-tetraaza-cyclododecane [Example 4a]
contrast in digital difference axial image (control minus CEST image): contrast enhancement in the blood pool
